This is an account of results in PMC9837035 (Nature Communications, 2023).

One assay concerns the target T1, SET7/9 (Homo sapiens, UniProt Q8WTS6).
T1 construct: purchased Reaction Biology
T1 sequence (Q8WTS6 1-366): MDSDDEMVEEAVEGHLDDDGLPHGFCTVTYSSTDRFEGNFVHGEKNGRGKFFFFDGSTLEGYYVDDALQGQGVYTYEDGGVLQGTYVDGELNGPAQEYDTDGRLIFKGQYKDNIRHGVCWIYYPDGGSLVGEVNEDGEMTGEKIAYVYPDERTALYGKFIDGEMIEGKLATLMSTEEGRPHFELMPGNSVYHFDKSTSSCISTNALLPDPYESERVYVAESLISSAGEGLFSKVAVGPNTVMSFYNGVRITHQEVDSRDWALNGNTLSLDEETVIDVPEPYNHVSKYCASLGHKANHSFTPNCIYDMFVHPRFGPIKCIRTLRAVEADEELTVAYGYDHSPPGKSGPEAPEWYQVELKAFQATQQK
Briefly: Radioisotope-based methyltransferase assay (selectivity). The format is biochemical.

A further assay relates to HbF in HUDEP-2 cells. Briefly: Flow cytometry of HbF-expressing HUDEP-2 cells. On the set-up: Flow cytometric analysis in HUDEP-2 cells: unit not given here. The settings on record: for Percentage of HbF-expressing cells: HUDEP-2, 11 days. The format is cell-based, human. The protocol:
For the analysis of HbF expression, HUDEP-2 cells or cells differentiated from human CD34 + progenitor cells were fixed in 0.05% glutaraldehyde for 10 min, then washed two times with PBS containing 2% FBS (PBS/2% FBS) and permeabilized with 0.1% Triton X-100 (prepared in PBS/2% FBS; Life Technologies) for 5 min. After washing with PBS/2% FBS two times, cells were stained with allophycocyanin (APC)-conjugated HbF antibody (1:1, Invitrogen, MHFH05). One million cells were incubated with the HbF–APC antibody for 30 min in the dark at 4 °C. Cells were washed twice with PBS/2% FBS, then suspended in 0.2 ml PBS/2% FBS and analyzed using a FACSCalibur (Becton Dickinson). To assess erythroid differentiation, hematopoietic cells differentiated from human CD34 cells were stained with FITC-conjugated CD45 antibody (1:1, Becton Dickinson, 555482) and APC-conjugated glycophorin A antibody (1:20, Becton Dickinson, 551336). Stained cells were suspended in 0.2 ml PBS/2% FBS containing 1 μg/ml propidium iodide (Sigma) and analyzed by FACSCalibur. The results of flow cytometer were further analyzed by FlowJo software (Becton Dickinson).
On the technique in general: Flow cytometry measures light scatter and fluorescence of single cells or particles in a stream.

A further assay deals with T2, SUV39H2 (Homo sapiens, UniProt Q9H5I1).
T2 construct: purchased Reaction Biology
T2 sequence (Q9H5I1 whole entry): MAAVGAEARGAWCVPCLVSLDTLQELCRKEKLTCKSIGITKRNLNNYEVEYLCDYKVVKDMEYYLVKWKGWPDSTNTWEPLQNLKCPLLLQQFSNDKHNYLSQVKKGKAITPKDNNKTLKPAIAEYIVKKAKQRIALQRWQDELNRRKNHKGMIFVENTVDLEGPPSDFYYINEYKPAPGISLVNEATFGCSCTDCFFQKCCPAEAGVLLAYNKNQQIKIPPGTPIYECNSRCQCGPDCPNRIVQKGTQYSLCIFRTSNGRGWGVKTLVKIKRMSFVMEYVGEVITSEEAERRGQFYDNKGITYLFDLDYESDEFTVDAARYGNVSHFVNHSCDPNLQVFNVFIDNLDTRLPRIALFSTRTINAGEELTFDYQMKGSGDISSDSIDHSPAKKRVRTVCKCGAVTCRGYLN
Description: Radioisotope-based methyltransferase assay (selectivity). The format is biochemical.

Assay [1] has as its system BGLT3 RNA in HUDEP-2 cells. Briefly: RT-qPCR of BGLT3 in HUDEP-2 cells. The format is cell-based, human. Summed up: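 Total RNA reverse-transcribed to cDNA, then target transcripts quantified by SYBR Green real-time qPCR. Expression normalized to GAPDH as reference gene.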
A general note: Quantitative PCR measures a nucleic acid by following its amplification.

Another assay concerns the target T3, GLP (Homo sapiens, UniProt Q9H9B1).
T3 sequence (Q9H9B1 1-1298): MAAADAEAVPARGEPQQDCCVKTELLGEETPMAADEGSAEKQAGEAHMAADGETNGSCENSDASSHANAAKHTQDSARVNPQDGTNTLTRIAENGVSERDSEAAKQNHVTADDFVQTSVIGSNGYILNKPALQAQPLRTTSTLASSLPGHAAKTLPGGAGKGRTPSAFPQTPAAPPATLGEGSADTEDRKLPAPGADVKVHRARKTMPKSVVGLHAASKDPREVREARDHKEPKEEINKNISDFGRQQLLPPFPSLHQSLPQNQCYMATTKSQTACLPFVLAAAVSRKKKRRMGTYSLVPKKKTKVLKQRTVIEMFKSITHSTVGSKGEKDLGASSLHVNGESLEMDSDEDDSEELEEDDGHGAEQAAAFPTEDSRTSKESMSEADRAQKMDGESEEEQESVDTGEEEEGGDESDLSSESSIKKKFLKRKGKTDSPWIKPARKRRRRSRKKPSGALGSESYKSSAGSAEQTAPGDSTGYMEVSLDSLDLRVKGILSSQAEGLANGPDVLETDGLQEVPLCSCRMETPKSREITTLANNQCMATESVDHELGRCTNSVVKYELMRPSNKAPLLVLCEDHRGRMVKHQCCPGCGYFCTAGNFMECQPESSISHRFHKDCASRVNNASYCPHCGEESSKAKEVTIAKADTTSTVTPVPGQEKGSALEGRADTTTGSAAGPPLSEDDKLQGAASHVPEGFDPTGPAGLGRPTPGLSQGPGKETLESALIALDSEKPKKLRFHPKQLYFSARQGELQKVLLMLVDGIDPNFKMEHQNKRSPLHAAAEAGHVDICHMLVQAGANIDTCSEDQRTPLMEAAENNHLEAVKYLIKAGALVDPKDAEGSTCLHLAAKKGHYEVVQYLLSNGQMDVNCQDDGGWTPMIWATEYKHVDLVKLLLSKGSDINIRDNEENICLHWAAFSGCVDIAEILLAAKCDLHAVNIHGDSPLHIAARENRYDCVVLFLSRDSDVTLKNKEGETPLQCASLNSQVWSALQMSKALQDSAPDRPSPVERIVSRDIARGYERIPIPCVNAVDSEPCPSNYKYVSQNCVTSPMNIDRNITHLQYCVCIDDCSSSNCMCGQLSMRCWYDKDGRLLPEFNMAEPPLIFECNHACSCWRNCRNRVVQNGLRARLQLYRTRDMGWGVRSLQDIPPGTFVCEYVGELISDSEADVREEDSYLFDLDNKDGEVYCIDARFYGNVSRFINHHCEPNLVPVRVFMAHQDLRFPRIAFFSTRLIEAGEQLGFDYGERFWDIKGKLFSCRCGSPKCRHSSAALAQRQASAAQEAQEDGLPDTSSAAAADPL
Briefly: biochemical.

The target in another assay is T4, NSD1 (Homo sapiens, UniProt Q96L73).
T4 construct: purchased Reaction Biology
T4 sequence (Q96L73 whole entry): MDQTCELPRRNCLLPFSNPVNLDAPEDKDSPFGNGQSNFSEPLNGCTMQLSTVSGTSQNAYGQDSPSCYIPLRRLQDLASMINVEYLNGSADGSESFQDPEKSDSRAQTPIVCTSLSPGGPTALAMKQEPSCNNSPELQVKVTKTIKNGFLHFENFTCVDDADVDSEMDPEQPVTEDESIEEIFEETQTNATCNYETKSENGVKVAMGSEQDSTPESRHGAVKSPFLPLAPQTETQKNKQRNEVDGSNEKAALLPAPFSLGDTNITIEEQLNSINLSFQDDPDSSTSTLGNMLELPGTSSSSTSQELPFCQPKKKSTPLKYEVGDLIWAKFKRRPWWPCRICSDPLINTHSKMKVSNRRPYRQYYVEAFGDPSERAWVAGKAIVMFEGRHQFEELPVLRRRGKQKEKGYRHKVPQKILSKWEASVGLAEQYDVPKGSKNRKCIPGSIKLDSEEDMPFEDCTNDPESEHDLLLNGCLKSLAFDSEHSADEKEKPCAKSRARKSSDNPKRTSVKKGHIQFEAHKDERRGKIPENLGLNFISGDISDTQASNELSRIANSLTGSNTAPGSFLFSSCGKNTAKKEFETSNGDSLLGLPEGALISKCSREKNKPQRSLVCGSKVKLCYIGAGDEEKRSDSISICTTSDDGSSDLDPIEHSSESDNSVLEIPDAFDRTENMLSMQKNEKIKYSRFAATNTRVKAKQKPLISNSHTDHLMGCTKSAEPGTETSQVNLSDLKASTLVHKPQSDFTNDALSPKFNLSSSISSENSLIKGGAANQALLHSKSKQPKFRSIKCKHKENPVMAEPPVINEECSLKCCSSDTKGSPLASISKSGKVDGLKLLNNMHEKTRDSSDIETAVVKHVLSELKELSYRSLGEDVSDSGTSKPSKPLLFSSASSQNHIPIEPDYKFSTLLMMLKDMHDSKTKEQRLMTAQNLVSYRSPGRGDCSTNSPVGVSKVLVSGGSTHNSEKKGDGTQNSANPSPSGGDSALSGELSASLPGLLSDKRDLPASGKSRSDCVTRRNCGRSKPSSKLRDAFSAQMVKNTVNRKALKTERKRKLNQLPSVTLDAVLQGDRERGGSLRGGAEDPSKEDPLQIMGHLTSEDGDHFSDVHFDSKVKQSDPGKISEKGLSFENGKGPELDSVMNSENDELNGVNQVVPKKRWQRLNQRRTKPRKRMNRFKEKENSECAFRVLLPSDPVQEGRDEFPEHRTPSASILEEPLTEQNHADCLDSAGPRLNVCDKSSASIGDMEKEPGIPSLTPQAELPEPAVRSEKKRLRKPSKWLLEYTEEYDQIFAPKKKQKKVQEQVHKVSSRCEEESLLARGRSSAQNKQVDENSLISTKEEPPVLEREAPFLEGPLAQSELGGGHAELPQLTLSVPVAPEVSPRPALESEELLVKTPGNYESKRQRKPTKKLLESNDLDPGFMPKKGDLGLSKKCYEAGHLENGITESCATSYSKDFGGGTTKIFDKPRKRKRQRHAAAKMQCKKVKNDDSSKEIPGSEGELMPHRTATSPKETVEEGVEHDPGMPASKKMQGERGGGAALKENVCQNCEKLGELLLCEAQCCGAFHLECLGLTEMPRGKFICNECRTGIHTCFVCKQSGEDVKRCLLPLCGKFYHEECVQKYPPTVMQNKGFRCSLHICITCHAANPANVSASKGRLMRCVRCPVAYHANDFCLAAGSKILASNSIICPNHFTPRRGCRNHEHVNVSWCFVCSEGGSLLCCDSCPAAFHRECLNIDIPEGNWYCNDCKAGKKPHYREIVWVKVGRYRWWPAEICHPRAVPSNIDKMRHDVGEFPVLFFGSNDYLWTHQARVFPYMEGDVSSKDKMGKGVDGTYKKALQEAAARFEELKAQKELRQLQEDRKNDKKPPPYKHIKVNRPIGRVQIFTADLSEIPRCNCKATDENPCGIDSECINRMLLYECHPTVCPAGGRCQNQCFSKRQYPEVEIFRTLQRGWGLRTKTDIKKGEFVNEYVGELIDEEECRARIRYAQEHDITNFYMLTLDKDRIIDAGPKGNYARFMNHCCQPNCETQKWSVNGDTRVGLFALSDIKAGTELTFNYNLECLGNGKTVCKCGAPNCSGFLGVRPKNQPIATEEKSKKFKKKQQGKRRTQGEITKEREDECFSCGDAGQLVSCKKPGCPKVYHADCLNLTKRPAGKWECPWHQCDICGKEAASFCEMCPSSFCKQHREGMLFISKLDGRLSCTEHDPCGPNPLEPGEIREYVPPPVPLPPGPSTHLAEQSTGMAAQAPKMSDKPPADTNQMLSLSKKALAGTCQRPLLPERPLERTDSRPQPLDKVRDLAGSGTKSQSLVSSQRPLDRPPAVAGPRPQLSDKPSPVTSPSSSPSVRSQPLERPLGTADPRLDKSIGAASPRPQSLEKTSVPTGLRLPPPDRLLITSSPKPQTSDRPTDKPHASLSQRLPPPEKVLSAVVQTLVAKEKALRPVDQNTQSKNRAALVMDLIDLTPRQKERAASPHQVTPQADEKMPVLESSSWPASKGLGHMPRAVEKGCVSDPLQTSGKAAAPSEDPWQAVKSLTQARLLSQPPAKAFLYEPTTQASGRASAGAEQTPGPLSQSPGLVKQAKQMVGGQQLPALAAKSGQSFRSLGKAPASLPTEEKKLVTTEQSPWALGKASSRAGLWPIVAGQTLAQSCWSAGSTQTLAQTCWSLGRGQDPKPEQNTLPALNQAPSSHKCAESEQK
Description: Radioisotope-based methyltransferase assay (selectivity). The format is biochemical.

For the next assay, the target named is DNMT3b (Homo sapiens, UniProt Q9UBC3). The description is as above. The settings on record: 1 μM SAM.

SMILES strings stand for the structures. Where “and” joins values, the source holds several entries; their conditions need not be identical. Identical values can stand only once.

As to `Cc1c(C(=O)NC(CCC2CC2)C(=O)Nc2ccc(C#N)cc2)[nH]c2c1C(=O)CC(C)(C)C2` (stereo not shown) [RK-701], the IC50 (in general, the midpoint of a concentration-inhibition curve) at SET7/9 (SET7/9, 1 μM SAM) was above 100 µM; against SET7/9 (SET7/9, RK-701 in duplicate), above 100 µM; against SUV39H2 (SUV39H2, 1 μM SAM), above 100 µM; at SUV39H2 (SUV39H2, RK-701 in duplicate) it was above 100 µM; at GLP, 0.0486 µM and 0.0577 µM; at NSD1 (NSD1, 1 μM SAM), above 100 µM. For the same compound, the IC50 on NSD1 (NSD1, RK-701 in duplicate) is above 100 µM; against DNMT3b, above 100 µM. Moreover, the “Flow cytometric analysis in HUDEP-2 cells” value was 6.04 and 5.19 and 7.23 in the assay on HbF in HUDEP-2 cells (0.01 μM); 7.86 and 6.03 and 10.4 in the assay on HbF in HUDEP-2 cells (0.03 μM); 15.5 and 13.3 and 20.6 in the assay with HbF in HUDEP-2 cells (0.1 μM); 34.6 and 30.8 and 42.2 with HbF in HUDEP-2 cells (0.3 μM); 55.6 and 50.6 and 60.1 in the assay on HbF in HUDEP-2 cells (1 μM); 42.6 and 54.1 and 68.6 in the assay on HbF in HUDEP-2 cells (3 μM). For the same compound, the “Percentage of HbF-expressing cells” value with HbF in HUDEP-2 cells (0.01 μM) was 6.2±0.8%; in the assay on HbF in HUDEP-2 cells (0.03 μM), 8.1±1.8%; in the assay with HbF in HUDEP-2 cells (0.1 μM), 16.5±3.1%; with HbF in HUDEP-2 cells (0.3 μM), 35.9±4.7%; in the assay on HbF in HUDEP-2 cells (1 μM), 55.4±3.9%; in the assay on HbF in HUDEP-2 cells (3 μM), 55.1±10.6%. In addition, the BGLT3 expression result was “induced BGLT3 expression” in assay [1] (HUDEP-2); 3.454 and 1.802 and 1.321 and 3.995 and 3.605 and 4.281 in assay [1] (parental HUDEP-2 cells treated with RK-701, parental DMSO = 1, replicates 1a-3b). The “BGLT3 expression in HUDEP-2 cells treated with RK-701 and decitabine” value in assay [1] (single agents or combination, relative to DMSO = 1, replicate values) was 2.098 and 1.983 and 1.578.
As to `Cc1c(C(=O)N[C@H](CCC2CC2)C(=O)Nc2ccc(C#N)cc2)[nH]c2c1C(=O)CC(C)(C)C2` [RK-0133114], in the assay on HbF in HUDEP-2 cells (3 μM), the “Flow cytometric analysis in HUDEP-2 cells” value is 7.47 and 5.8 and 9.04; the “Percentage of HbF-expressing cells” value came out at 7.4±1.3%. Further, in the assay on HbF in HUDEP-2 cells (HUDEP-2), the HbF induction result was “failed to increase HbF”.
On to `NC(=O)NO` [Hydroxyurea, hydroxyurea], for which the “BGLT3 expression in HUDEP-2 cells treated with hydroxyurea” value in assay [1] (50 μM, relative to DMSO = 1, replicate values) was 1.625 and 1.206 and 1.616; in assay [1] (100 μM, relative to DMSO = 1, replicate values), 1.87 and 1.919 and 2.091; in assay [1] (200 μM, relative to DMSO = 1, replicate values) it was 2.757 and 2.815 and 4.093. For the same compound, the BGLT3 expression entry is “promoted BGLT3 expression” in assay [1] (HUDEP-2); 2.685 and 2.462 and 3.265 in assay [1] (Left panel, Parental HUDEP-2 cells treated with hydroxyurea, Parental DMSO = 1, 3 replicates); 2.685 and 2.462 and 3.265 in assay [1] (Right panel, Parental HUDEP-2 cells treated with hydroxyurea, DMSO of the same cells = 1, 3 replicates).
With `Nc1ncnc2c1ncn2[C@@H]1O[C@H](CSCC[C@H](N)C(=O)O)[C@@H](O)[C@H]1O` [SAH, S-(5'-Adenosyl)-L-homocysteine, reference compound], the IC50 against SET7/9 (SET7/9, 1 μM SAM) was determined as 81.8 µM; at SET7/9 (SET7/9, RK-701 in duplicate), 81.8 µM; at SUV39H2 (SUV39H2, 1 μM SAM), 20.2 µM; against SUV39H2 (SUV39H2, RK-701 in duplicate) it was 20.2 µM; at GLP it was 3.86 µM; at NSD1 (NSD1, 1 μM SAM), 56.6 µM. In addition, the IC50 at NSD1 (NSD1, RK-701 in duplicate) was found to be 56.6 µM; at DNMT3b, 0.11 µM.
